Test results reported in patent US9732059B2, “Methods of use of cyclic amide derivatives to treat schizophrenia” (Minerva Neurosciences, Inc., priority 2010, dated 2017).
“Also recorded” adds a separate entry of the source.

Key:
[1] = test system: patients with DSM-IV schizophrenia; assay: Phase 2 double-blind, randomized, placebo-controlled proof of concept study: efficacy scales (PANSS, CGI-S, DAI-10, PSQI, BACS, MADRS, HAMA); assay type: in vivo, human
Procedure: A study was conducted using the compound of formula II, to examine the efficacy on schizophrenia and treatment of symptoms of schizophrenia. The study was a multi-center, inpatient and ambulatory, phase 2, double-blind, randomized, placebo-controlled proof of concept study of the compound of formula II in patients with DSM-IV schizophrenia. The study used 21 centers across three different countries.
(§1) The study was designed to test the therapeutic efficacy of the compound of formula II on all dimensions of schizophrenic disease (E.g., positive, negative, and general symptoms, cognition, sleep, mood and anxiety). The study also examined the safety of the administered doses of the compound of formula II (also referred to herein as CYR-101), including heart repolarization (i.e., QT interval), weight change, adverse events, prolactin, and extrapyramidal symptoms).
The study was conducted for a time period of three months.
The objectives of the study included the following: • 1. Evaluate the efficacy versus placebo of CYR-101 on global PANSS score and sub-scores after one month (28 days+/− 2 days) of treatment • 2. […] Evaluate the efficacy versus placebo of CYR-101 as assessed by the CGI-S after one and three months of treatment • 4. Evaluate subjective efficacy in patients of CYR-101 versus placebo as assessed by the Drug Attitude Inventory-10 (DAI-10) after one and three months of treatment • 5. Evaluate subjective sleep quality as assessed by Pittsburgh Sleep Quality Index (PSQI) after three month of treatment • 6. Explore the efficacy versus placebo of CYR-101 on cognitive function as measured by BACS (Brief Assessment of Cognition in Schizophrenia) scale after one and three months of treatment • 7. Evaluate the efficacy versus placebo of CYR-101 in depressive symptoms as measure by the Montgomery-Asberg Depression Rating Scale (MADRS) total score after one month of treatment • 8. Evaluate the efficacy versus placebo of CYR-101 in anxiety as measured by the Hamilton Anxiety Scale (HAMA) total score after one month of treatment • 9. Assess cardio-vascular safety (particularly ventricular repolarisation as assessed by QT/QTc interval measurements) of CYR-101 compared with placebo • 10. Assess the global safety and tolerability of CYR-101 compared with placebo • 11. Determine the pharmacokinetics of CYR-101 in schizophrenic patients
(§2) CYR-101 8 mg oral sustained release (SR) tablet, oral administration of 1, 2, or 4 tablets (8, 16 or 32 mg of CYR-101) was administered twice daily in fed condition. During the dose adjustment period, CYR-101 was administered orally, twice a day in the morning and in the evening, at the daily dose of 16 mg for two days, then titrated up every two days to 32 mg and 64 mg respectively. During the fixed-dose period, the optimal adjusted dose evaluated for each patient or the maximum daily dose of 64 mg of CYR-101 was administered. In one aspect of the study, the dosage of compound was titrated up to 32 mg b.i.d.
During the lead-in period, oral administration of 1 placebo SR tablet was conducted twice a day for 3 days. During the dose adjustment and fixed-dose periods, oral administration of 1, 2, or 4 placebo SR tablets was used twice daily as performed for the test product.
The resulting data was analyzed one of three ways: 1.) Safety set; 2.) Full analysis set, with each patient having at least one PANSS evaluation after treatment initiation included in the efficacy analysis. The LOCF method is used; and 3.) Per protocol set, where for certain analyses, all patients having completed three months of treatment are included. ANCOVA followed by a contrast analysis at each time point were applied and in some cases, a non-parametric Wilcoxon test was used.
1. Primary: PANSS total score and sub-scores, after one month of treatment
2. […]

[2] = test system: patients with DSM-IV schizophrenia; assay: Phase 2 clinical study: safety (extrapyramidal symptoms, adverse events, QT interval); assay type: in vivo, human
Procedure: as §1, §2
4. Safety: 12-lead ECG, adverse event (AE) recording, vital signs, physical examination, weight and waist circumference, safety lab tests, evaluation of extra-pyramidal symptoms (measured by Simpson and Angus scale), and prolactin levels.
3. Safety: Descriptive statistics on the safety set for extent of exposure, adverse events recording, safety lab tests, 12-lead ECG parameters, vital signs, and physical examination, weight and waist circumference, extra-pyramidal symptoms, prolactin levels.

[3] = test system: schizophrenic patients; assay: Polysomnographic (PSG) sleep recording in a sub-group of patients; assay type: in vivo, human
Source text: 3. Exploratory: In a sub-group of patients, polysomnographic sleep continuity and sleep architecture parameters.
2. Secondary efficacy variables: Same method for the PANSS total and sub-scores at three months of treatment, BACS, DAI-10, MADRS, HAMA, and PSQI on the Full Analysis Set (FAS). Last Observation Carried Forward (LOCF) procedure used for missing data imputation. Analysis of variance (ANOVA) for the Readiness for Discharge Questionnaire (RDQ) at 14 days. Wilcoxon rank sum test for CGI-S. Descriptive statistics and graphical presentation on changes from baseline on FAS. Efficacy analyses (ANCOVA) additionally performed on the Per Protocol Set. Supportive exploratory analysis on PANSS using longitudinal, likelihood-based, mixed-effect model on FAS without missing data imputation. On a subtest of patients, polysomnographic (PSG) recording parameters analyzed using descriptive statistics and ANCOVA on changes from baseline.
Polysomnographic recordings took place in a sub-group of patients. Sleep was recorded from 11:00 pm to 7:00 am on D-1 after a habituation night (baseline condition) and on D14. Analyses regarding sleep continuity, stage distribution, and stage profile parameters were exploratory. The treatment differences on each of these sleep parameters were analyzed using D14 values with ANOVAs and ANCOVAs with country and treatment as main effects and baseline as covariate.
Among the 33 patients who had performed a PSG recording at visit lead-in day-1, 19 received placebo and 14 received the study treatment. Among these, […] experienced technical problem and/or insomnia during baseline and/or treatment night and were therefore excluded from the analysis. Finally, 20 patients were included in the analysis set of ANOVA and 19 patients were included in the analysis set of ANCOVA, and according to the SAP, only ANCOVA results were taken into account and are further discussed in the next sections.

[4] = target: sigma 2 receptor (Homo sapiens, UniProt Q5BJF2); conditions: cited from earlier work
[5] = target: 5-HT2A (Homo sapiens, UniProt P28223); conditions: known: dual 5-HT2A/sigma 2; cited from earlier work
[6] = test system: dopamine; conditions: known; cited from earlier work
[7] = D14, ANCOVA contrast, not statistically significant
[8] = D14, ANCOVA, no significant treatment effect
[9] = D14, not statistically significant

5-HT2A, sequence (P28223 whole entry, species assumed): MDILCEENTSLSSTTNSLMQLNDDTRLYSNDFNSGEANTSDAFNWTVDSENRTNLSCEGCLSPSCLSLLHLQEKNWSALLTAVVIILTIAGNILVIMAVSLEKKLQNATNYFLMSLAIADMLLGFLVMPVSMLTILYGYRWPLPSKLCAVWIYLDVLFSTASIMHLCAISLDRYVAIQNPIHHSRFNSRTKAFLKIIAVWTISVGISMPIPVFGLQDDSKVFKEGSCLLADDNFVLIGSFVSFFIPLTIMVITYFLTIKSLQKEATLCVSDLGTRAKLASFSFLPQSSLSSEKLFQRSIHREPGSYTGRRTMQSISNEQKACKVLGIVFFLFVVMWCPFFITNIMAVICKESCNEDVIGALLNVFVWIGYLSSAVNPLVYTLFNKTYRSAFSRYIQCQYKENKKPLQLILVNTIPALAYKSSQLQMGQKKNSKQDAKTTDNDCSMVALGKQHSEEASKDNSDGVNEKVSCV
sigma 2 receptor, sequence (Q5BJF2 whole entry, species assumed): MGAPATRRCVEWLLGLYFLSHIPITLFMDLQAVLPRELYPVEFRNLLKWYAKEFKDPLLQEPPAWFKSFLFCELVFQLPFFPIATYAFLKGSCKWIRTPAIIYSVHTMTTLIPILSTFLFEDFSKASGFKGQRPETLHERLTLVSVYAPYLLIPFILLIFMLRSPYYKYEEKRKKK

O=C(CN1CCC(CN2Cc3ccccc3C2=O)CC1)c1ccc(F)cc1 [CYR-101, 2-[[1-[2-(4-Fluorophenyl)-2-oxoethyl]piperidin-4-yl]methyl]isoindolin-1-one]
PANSS general psychopathology sub-score, treatment difference vs placebo ([1]; D28, FAS): no treatment difference | PANSS positive sub-score, treatment difference vs placebo ([1]; D28, FAS): no treatment difference | PANSS total score, change from baseline, treatment difference vs placebo ([1]; D28, FAS): no treatment difference | PANSS negative sub-score decrease ([1]; D28, FAS, p<0.01): −1.9 | PANSS general psychopathology sub-score, treatment difference vs placebo ([1]; D28, PPC): no treatment difference | PANSS positive sub-score, treatment difference vs placebo ([1]; D28, PPC): no treatment difference | PANSS total score, treatment difference vs placebo ([1]; D28, PPC): no treatment difference | PANSS negative sub-score decrease ([1]; D28, PPC, p<0.0010): −4.7 | PANSS general psychopathology sub-score, treatment difference vs placebo ([1]; D84, FAS): no significant treatment difference | PANSS positive sub-score, treatment difference vs placebo ([1]; D84, FAS): no significant treatment difference | PANSS total score, change from baseline, treatment difference vs placebo ([1]; D84, FAS): no significant treatment difference | PANSS negative sub-score point estimate decrease ([1]; D84, FAS, p<0.01): −2.3 | PANSS total score vs placebo ([1]; D84, PPC, obvious switch on D56): favorable trend of CYR-101 over placebo | PANSS negative sub-score improvement ([1]; D84, PPC, p<0.001, treatment difference vs placebo p=0.0581): −5.8 | PANSS positive sub-score vs placebo ([1]; D84, PPC, switch between D56 and D70): favorable trend of CYR-101 over placebo | PANSS general psychopathology sub-score vs placebo ([1]; D84, PPC, switch on D70): favorable trend of CYR-101 over placebo | Cognitive performances assessed by BACS vs placebo ([1]; FAS): no differences between the placebo group and the CYR-101 group, except for the Token motor task | MADRS Total change score, difference vs placebo ([1]; FAS and PPC, D28 and D84, reduction in both groups): not statistically significant | CGI-S score, difference between CYR-101 and placebo ([1]; FAS, D28 and D84): no significant difference | HAMA total score change from baseline ([1]; FAS, D28 and D84, non statistically significant): slight HAMA total score reduction | HAMA total score reduction ([1]; PPC, D28, p=0.2920): −1.0 | BACS Token motor task, list learning task, verbal fluency vs placebo ([1]; PPC, D84, descriptive data, not statistically significant): slight difference in favor of CYR-101 group; also recorded: slight difference in favour of CYR-101 group | HAMA total score reduction ([1]; PPC, D84, p=0.0642): −2.9 | CGI-S mean difference score ([1]; PPC, from D56 until D84): non significant but an interesting switch in favor of CYR-101 | Improvement of negative symptoms, onset ([1]; course of treatment): observed immediately | Improvement of positive symptoms, onset ([1]; course of treatment): did not improve until after the first four weeks of treatment | Duration of improvement in both positive and negative symptoms ([1]; in vivo): continued for more than twelve weeks | Effect on cognition in schizophrenic patients ([1]; in vivo): positive effect on cognition | DAI-10 total score change from baseline, difference between groups ([1]; to D28 and D84, FAS and PPC): no statistically significant difference | Increase in the QT interval ([2]; doses up to 32 mg b.i.d., stable over time, limits e.g. 10-15 milliseconds or less): did not cross clinically acceptable limits | Emergence or worsening of extrapyramidal symptoms, CYR-101 vs placebo ([2]; human, in vivo): no significant difference | Number of SAE in the active treatment group ([2]; unlikely related to CYR-101 based on the patient history): one | Decrease of sleep efficiency index (SEI) compared to placebo [3, 7]: 2.4% | Decrease of total sleep time (TST) compared to placebo [3, 7]: 13.7 min | Increase of duration of wake after sleep onset (WASO) compared to placebo [3, 7]: 26.6 min | Latency to persistent sleep [3, 8]: trend of improvement | Sleep onset latency [3, 8]: trend of improvement | REM sleep latency contrast ([3]; D14, non significant): appeared later | SWS latency contrast ([3]; D14, non significant): appeared sooner | Decrease of REM sleep in SPT2 and in SPT3 [3, 9]: 3.03% | Increase of REM sleep in the first third of SPT (REM_SPT1) [3, 9]: 1.4% | Slow Wave Sleep (SWS) compared to placebo [3, 9]: increased | Stage 1 (ST1) compared to placebo [3, 9]: decreased | Stage 2 (ST2 in min) compared to placebo [3, 9]: decreased | Total Time Awake (TTA) compared to placebo [3, 9]: increased | nonREM sleep (NREM) compared to placebo [3, 9]: increased | Decrease of SWS during the last third of SPT (SWS-SPT3) compared to placebo ([3]; D14, p<0.05): 22.1% | Increase of SWS in the first third of SPT (SWS-SPT1) compared to placebo ([3]; D14, p<0.05): 23.6% | REM sleep (REM) compared to placebo ([3]; D14, significant only for REM-TST (p<0.05)): decreased | Receptor binding selectivity [4]: sigma 2-selective receptor binding | Mode of action at 5-HT2A [5]: antagonist | Dopamine binding properties [6]: devoid of dopamine binding properties
